In PMC9732821, “Neurotrophic Activity and Its Modulation by Zinc Ion of a Dimeric Peptide Mimicking the Brain-Derived Neurotrophic Factor N-Terminal Region” (ACS Chemical Neuroscience, 2022):

B1: brain-derived neurotrophic factor (protein, UniProt P23560 1-247, looked up)
chain: MTILFLTMVISYFGCMKAAPMKEANIRGQGGLAYPGVRTHGTLESVNGPKAGSRGLTSLADTFEHVIEELLDEDQKVRPNEENNKDADLYTSRVMLSSQVPLEPPLLFLLEEYKNYLDAANMSMRVRRHSDPARRGELSVCDSISEWVTAADKKTAVDMSGGTVTVLEKVPVSKGQLKQYFYETKCNPMGYTKEGCRGIDKRHWNSQCRTTQSYVRALTMDSKKRIGWRFIRIDTSCVCTLTIKRGR
modifications: full-length
notes: full-length human BDNF produced recombinantly in Escherichia coli

System: TrkB-EGFP
Test: TrkB dimerization, number & brightness (N&B) in living SH-SY5Y cells
Format: cell-based, human
Conditions: 150 ng/mL BDNF or 10 μM d-bdnf, within 30 min; f-EGFP monomeric reference; two independent experiments
Description: Figure 1 Activation of the TrkB receptor by BDNF and its mimetic peptide ligands. (A) Schematic picture of the human TrkB receptor fused to the EGFP construct (hTrkB-EGFP); recombinant human mature BDNF (hBDNF); monomeric peptide, m-bdnf; dimeric peptide, d-bdnf; scrambled s-bdnf. (B) WB showing Tyr phosphorylation (p-Tyr, top) and total TrkB levels (bottom) in SH-SY5Y cells transfected with hTrkB-EGFP in the absence (ctrl) or presence of 10 min stimulation with 150 ng/mL BDNF or 10 μM m-bdnf, d-bdnf, or s-bdnf. Samples were immunoprecipitated (IP) with the anti-GFP antibody before WB. […] (C) Scatter dot plot of ERK (left) and AKT (right) phosphorylation levels detected in differentiated SH-SY5Y cells, after stimulation with the same treatments as in (B). […] (G) Bar graph of mean ± SD ‘B-1’ values retrieved from N&B analysis for all the different conditions measured. […]
The same TrkB-GFP expressing SH-SY5Y cells were used to deeper investigate the mechanism of TrkB activation induced by d-bdnf, using an advanced imaging approach in living cells. We exploited a fluorescence correlation technique, which directly correlates the brightness of each fluorescent pixel of the image to the number of TrkB molecules averagely populating that pixel during the observation time (number & brightness technique—N&B[34],[35]). […]

Molecule | TrkB monomer/dimer state at plasma membrane
HSDPARRGELSVC-C-VSLEGRRAPDSH (disulfide) [d-bdnf] | shift toward the dimeric form
B1 | shift toward the dimeric form
